Reference: paper PMC12027946, “Ionic and Non-Ionic Counterparts Based on Bis(Uracilyl)Alkane Moiety with Highest Selectivity Towards Acetylcholinesterase for Protection Against Organophosphate Poisoning and Treating Alzheimer’s Disease” (International Journal of Molecular Sciences, 2025)
Values joined by “and” are separate entries in the source; they are usually repeats but may differ in a detail not shown here. Equal values may be shown once. Read-outs that look alike come from different tables or passages of the source.

Columns and labels:
[1] = system: scopolamine-induced amnesia in mice; experiment: Novel object recognition test, scopolamine-induced amnesia; format: in vivo
Method: This study explored the ability of bisuracil 3c to counteract scopolamine-induced amnesia in mice, utilising behavioural assessments conducted through the novel object recognition test. […] The induction of amnesia was facilitated by the i.p. injection of scopolamine (1.5 mg/kg) 50 min prior to testing. […]. An equivalent amount of the vehicle was administered to a control group of mice.
The experiments were carried out on CD1 mice of both sexes weighing 24–25 g. The novel object recognition test was conducted over a period of three days. On the first day, the mice were placed individually into the square testing arena with black walls (50 cm in length, 50 cm in width, 38 cm in height) for 5 min without any objects. On the second day, two identical objects were placed in the central part of the arena, and the mice were allowed to explore the objects for 10 min. Test compounds were administered prior to testing on the second day. The induction of amnesia was facilitated by i.p. injection of scopolamine (1.5 mg/kg) 50 min prior to testing. Tested compounds were administered i.p. 30 min prior to testing. The control group of animals was administered with an equivalent amount of vehicle. On the third day, the mice were presented with a familiar and a novel object for 10 min. The time of exploration of each object by the mice was recorded using a digital camera. After each test, the arena was cleaned with a solution of 70% ethanol. At the end of the test, the preference index (exploration of novel object/total exploration time × 100) was calculated.

AChE = conditions: cited from earlier work
human AChE [2] = biological target: T1, human AChE (Homo sapiens, UniProt P22303); experiment: In vitro cholinesterase inhibition (Ellman), AChE; format: biochemical
T1 construct: purchased Sigma-Aldrich
Method: (§1) Inhibitory activities of the tested compounds against AChE and BChE were measured according to Ellman et al.. Enzyme-catalysed hydrolysis of ATCHh was carried out at 25 °C in 0.1 M phosphate buffer (pH 8.0) containing 0.25 U AChE, 1 mM ATCHh as substrates, and 0.1 mM of DTNB. In experiments with BuChE, 0.1 M phosphate buffer (pH 7.0) and BuTChh as a substrate were used. The tested compounds were pre-incubated with the enzyme for two minutes prior to the addition of the substrate and the subsequent recording of hydrolysis kinetics. […] A sample without an inhibitor was used as a control (100% cholinesterase activity). A sample without a substrate was used as a blank. Experiments were performed in triplicate.

BChE from human plasma = biological target: T2, BChE from human plasma (Homo sapiens, UniProt P06276); experiment: In vitro cholinesterase inhibition (Ellman), BuChE; format: biochemical
T2 construct: butyrylcholiesterase from human plasma; purchased Sigma-Aldrich; host or cells: human plasma
Method: as §1

human AChE [3] = biological target: T1, human AChE; experiment: Inhibition constants (Dixon and Cornish–Bowden plots), AChE; format: biochemical
Method: (§2) Experiments were performed using four different concentrations of ATCh as a substrate for AChE, and with BuTCh as a substrate for BuChE. According to the analysis of Dixon and Cornish–Bowden plots for bisuracil 2b, AChE and BuChE inhibition is of a mixed type characterised both by competitive inhibition (Kci) and uncompetitive inhibition (Kui) components. For AChE, Kci was determined to be 55.7 ± 8.1 pM while Kui = 156 ± 18 pM (Figure 3A,B), and Kci = 0.13 ± 0.02 mM while Kui = 0.7 ± 0.06 mM for BuChE (Figure 3C,D). Inhibition of AChE and BuChE by bisuracil 3c was of a mixed type. For the AChE constant, Kci was 0.7 ± 0.04 nM while Kui 4.45 ± 1.76 nM (Figure 4A,B); for the BuChE constant, Kci = 0.04 ± 0.007 мM while Kui = 0.68 ± 0.08 мM (Figure 4C,D).
(§3) A UV-1800 Shimadzu (Shimadzu Co., Kyoto, Japan) spectrophotometer was utilised to conduct the measurements. The final enzyme concentration in the assays was in the picomolar range. In order to ascertain the levels of spontaneous hydrolysis of the enzyme and substrate in the absence of an inhibitor, controls were performed for each substrate concentration. The change in absorption was then recorded over a period of three minutes. The inhibition constants were determined from a Dixon plot and Cornish–Bowden transformation.

human BuChE = biological target: T3, human BuChE (Homo sapiens, UniProt P06276); experiment: Inhibition constants (Dixon and Cornish–Bowden plots), BuChE; format: biochemical
T3 construct: butyrylcholiesterase from human plasma; purchased Sigma-Aldrich; host or cells: human plasma
Method: as §2, §3

[4] = Acute toxicity, single i.p. injection; conditions: CD-1, mouse, in vivo, ip, mice
Method: Toxicological experiments were performed using a single i.p. injection of the tested compounds in CD-1 mice weighing 20–25 g. Stock solutions of the tested compounds were diluted in ethanol or water. The final ethanol dose was 100 mg/kg. Nine different doses of the tested compounds were used with 12 mice per dose. Animals were observed 7 days after injection, and symptoms of toxicity were recorded.

[5] = system: mice poisoned with 2×LD50 of POX; experiment: Protection against POX toxicity (pre-treatment); format: in vivo; conditions: for n/N (mice surviving 5 days after POX poisoning / total): atropine 15 mg/kg i.p. 1 min after POX
Method: The concept of using reversible AChE inhibition as a preventive strategy to enhance the efficacy of traditional antidotes in OP poisoning is a well-established principle. This study explores the potential of bisuracil 2b as a preventive agent to protect AChE from irreversible inhibition caused by paraoxon (POX), a model OP. […] Following POX administration, the standard antidote atropine was given at a dose of 15 mg/kg within one minute. […] Increasing the dose of bisuracil 2b reduced the protective effect in POX poisoned animals (Table 3).
We also estimated the relative risk of death (RRD) as a function of precocity (from min to hours) over a period of 10 h by Cox survival analysis. Statistical differences in the number of surviving animals between experimental groups were tested using the Cox–Mantel multisample logarithmic rank criterion. It was shown that, in mice exposed to 0.42 mg/kg of POX, RRD = 1 (Figure 5). However, in animals that received atropine within 1 min after poisoning, POX-induced mortality was lower (RRD = 0.5; Figure 5).
The tested compound was administered via i.p. before POX injection.

mice [6] = experiment: Rotarod test; format: in vivo; conditions: 2b 0.01 mg/kg i.p.; control 173 ± 21 s, p = 0.125
Method: (§4) The ability of effective doses of bisuracil 2b (0.01 mg/kg) and bisuracil 3c (5 mg/kg) to induce incapacitation was evaluated. Locomotor activity, measured as the total distance travelled, and exploratory behaviour, assessed by the number of rearings (head inclinations) and head dips, were evaluated using the open-field test. Additionally, motor coordination was analysed using the rotarod test, where the ability of mice to stay on the rotating rod was recorded. The compounds were administered i.p. 30 min before testing, while the control group received an equivalent volume of the vehicle.
To analyse motor function, rotarod and open-field tests were carried out. Mice were randomly divided into 3 groups (n = 12): a control group of mice and groups of mice treated with tested compounds. Tests were conducted 1 h after compound exposure. To assess motor function, mice were first placed on a rotarod treadmill (Ugo Basile, Italy). Rotation speed was fixed at 15 rpm, and the time that each mouse remained on the rod was recorded as the score, with a maximum duration of 300 s per trial. Each mouse underwent 3 trials. […] To assess motor function, the distance travelled in centimetres in the arena was measured, using VideoMot2 software (Version 8.02 (131) 03-07-17 (TSE Systems, Bad Homburg, Germany).

mice [7] = experiment: Open-field test; format: in vivo; conditions: 2b 0.01 mg/kg, 3c 5 mg/kg, i.p.
Method: as §4
To analyse motor function, rotarod and open-field tests were carried out. Mice were randomly divided into 3 groups (n = 12): a control group of mice and groups of mice treated with tested compounds. Tests were conducted 1 h after compound exposure. To assess motor function, mice were first placed on a rotarod treadmill (Ugo Basile, Italy). Rotation speed was fixed at 15 rpm, and the time that each mouse remained on the rod was recorded as the score, with a maximum duration of 300 s per trial. Each mouse underwent 3 trials. After recording the length of time that mice managed to remain on the rotarod (latency to fall), the average of three trials was used for further analysis. Following the rotarod test, motor function was studied in an open field apparatus (Open Science, Krasnogorsk, Russia), as described in [39]. The numbers of rearing and head dips were estimated as indexes of exploratory activity. To assess motor function, the distance travelled in centimetres in the arena was measured, using VideoMot2 software (Version 8.02 (131) 03-07-17 (TSE Systems, Bad Homburg, Germany).

T1 sequence (P22303 32-614): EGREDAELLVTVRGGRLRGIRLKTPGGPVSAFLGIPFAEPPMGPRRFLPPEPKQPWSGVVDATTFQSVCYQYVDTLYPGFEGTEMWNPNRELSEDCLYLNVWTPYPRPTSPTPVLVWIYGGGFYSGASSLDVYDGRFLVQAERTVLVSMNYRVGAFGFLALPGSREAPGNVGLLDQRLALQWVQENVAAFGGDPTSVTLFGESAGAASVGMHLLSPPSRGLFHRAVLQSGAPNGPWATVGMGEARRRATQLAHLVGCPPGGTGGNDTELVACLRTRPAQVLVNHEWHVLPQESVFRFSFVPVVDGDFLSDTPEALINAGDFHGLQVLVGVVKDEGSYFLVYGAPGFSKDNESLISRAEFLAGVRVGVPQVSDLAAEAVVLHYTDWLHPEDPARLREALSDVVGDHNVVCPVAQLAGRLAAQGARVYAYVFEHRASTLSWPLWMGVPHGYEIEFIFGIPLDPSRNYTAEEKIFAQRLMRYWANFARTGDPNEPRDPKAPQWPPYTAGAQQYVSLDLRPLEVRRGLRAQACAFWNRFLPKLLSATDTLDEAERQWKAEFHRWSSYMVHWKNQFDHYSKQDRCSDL
T3 sequence (P06276 29-602): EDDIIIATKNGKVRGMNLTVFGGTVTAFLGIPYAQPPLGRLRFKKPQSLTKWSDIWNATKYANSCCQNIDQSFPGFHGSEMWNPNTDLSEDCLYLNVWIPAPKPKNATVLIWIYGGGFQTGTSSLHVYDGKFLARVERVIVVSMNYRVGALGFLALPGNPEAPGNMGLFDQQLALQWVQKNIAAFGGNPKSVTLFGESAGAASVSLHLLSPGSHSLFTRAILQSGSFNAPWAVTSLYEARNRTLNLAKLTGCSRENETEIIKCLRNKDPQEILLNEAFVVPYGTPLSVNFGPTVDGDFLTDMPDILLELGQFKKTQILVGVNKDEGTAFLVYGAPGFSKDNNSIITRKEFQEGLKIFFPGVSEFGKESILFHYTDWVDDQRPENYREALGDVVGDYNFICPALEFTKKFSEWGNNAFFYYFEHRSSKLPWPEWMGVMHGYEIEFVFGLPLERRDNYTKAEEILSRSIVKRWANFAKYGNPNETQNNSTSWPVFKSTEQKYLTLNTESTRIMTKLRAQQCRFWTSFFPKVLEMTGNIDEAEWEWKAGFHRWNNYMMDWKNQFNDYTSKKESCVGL
T2 sequence (P06276 29-602): as above

Structure (SMILES): CN1[C@@H]2C[C@@H](OC(=O)[C@H](CO)c3ccccc3)C[C@H]1[C@@H]1O[C@@H]12 [scopolamine, reference compound]
- reduction of the preference for the novel object compared to the control group ([1]; scopolamine 1.5 mg/kg i.p. 50 min prior to testing, p = 0.0001): 34.1%

Structure (SMILES): CCN(C)C(=O)Oc1cccc([C@H](C)N(C)C)c1 [rivastigmine]
- inhibition profile (AChE vs BuChE) (AChE): non-selective

Structure (SMILES): CC[N+](CC)(CCCCCn1c(=O)ccn(CCCCn2c(C)cc(=O)n(C)c2=O)c1=O)Cc1ccccc1C#N [2b, 1,4-{(3,6-Dimethyluracil-1-yl)-[3-(5-o-nitrilebenzyl(diethyl)ammonio)pentyl)-uracil-1-yl]}butane bromide]
- IC50 (human AChE [2]; AChE IC50, as printed in text and Figure 9): 0.0649 nM
- IC50 (human AChE [2]; IC50 AChE, Table 1, recombinant human AChE, 25 °C, pH 8.0): 0.06 ± 0.003 nM
- IC50 (BChE from human plasma): 219 ± 50 µM
- Ki (human AChE [3]): 0.0557 ± 0.0081 nM
- Kui (uncompetitive inhibition constant), AChE (human AChE [3]; ATCh as substrate): 156 ± 18 pM
- type of AChE inhibition (human AChE [3]; Dixon and Cornish–Bowden plots): mixed type
- Ki (human BuChE): 130 ± 20 µM
- Kui (uncompetitive inhibition constant), BuChE (human BuChE; BuTCh as substrate): 0.7 ± 0.06 mM
- type of BuChE inhibition (human BuChE; Dixon and Cornish–Bowden plots): mixed type
- LD50 at 7 days ([4]; observed 7 days, read-out: LD50 (median lethal dose)): 5.16 mg/kg
- LD50 at 7 days ([4]; read-out: LD50 95% confidence limits): 3.68 to 6.94 mg/kg
- n/N (mice surviving 5 days after POX poisoning / total) ([5]; 2b 0.005 mg/kg i.p. 30 min before POX 0.42 mg/kg i.p.): 8/12
- n/N (mice surviving 5 days after POX poisoning / total) ([5]; 2b 0.01 mg/kg i.p. 30 min before POX 0.42 mg/kg i.p.): 10 out of 12 and 10/12
- relative risk of death (RRD) vs poisoned group treated only with atropine ([5]; 2b 0.01 mg/kg pre-treatment, p = 0.02): significantly decreased
- n/N (mice surviving 5 days after POX poisoning / total) ([5]; 2b 0.05 mg/kg i.p. 30 min before POX 0.42 mg/kg i.p.): 7/12
- n/N (mice surviving 5 days after POX poisoning / total) ([5]; 2b 0.1 mg/kg i.p. 30 min before POX 0.42 mg/kg i.p.): 5/12
- n/N (mice surviving 5 days after POX poisoning / total) ([5]; 2b 0.5 mg/kg i.p. 30 min before POX 0.42 mg/kg i.p.): 4/12
- n/N (mice surviving 5 days after POX poisoning / total) ([5]; 2b 1 mg/kg i.p. 30 min before POX 0.42 mg/kg i.p.): 4/12
- relative risk of death (RRD) ([5]; 2b doses above 0.01 mg/kg): did not result in a reduction
- mean fall time (rotarod) (mice [6]): 124 ± 20 s
- distance travelled (open field) vs control group (mice [7]): no significant differences
- number of rearings or head dips (open field) (mice [7]): neither of the tested compounds significantly influenced

Structure (SMILES): COc1ccc2c3c1O[C@H]1C[C@@H](O)C=C[C@@]31CCN(C)C2 [galantamine]
- selectivity for AChE over BuChE (AChE): 50 fold

Structure (SMILES): COc1cc2c(cc1OC)C(=O)C(CC1CCN(Cc3ccccc3)CC1)C2 (centres unmarked) [Donepezil, donepezil, reference compound]
- increase in the preference for the novel object compared to the scopolamine-treated group ([1]; donepezil 1 mg/kg i.p. 30 min prior to testing, scopolamine 1.5 mg/kg, p = 0.03): 32.2%
